Test results from patent US20240208972A1, “LRRK2 INHIBITORS AND USES THEREOF” (NEURON23, INC., priority 2022, published 2024).

Experiment: Brain penetration (Kp,uu) in CD-1 mice, with plasma and brain tissue binding by equilibrium dialysis
Type: in vivo
Conditions: mouse, brain and plasma (unbound), male CD-1 mice, single IV bolus 1 mg/kg
Protocol: The compounds disclosed herein were tested on CD-1 mice for brain penetration (Kp, uu) according to the following procedures.
Nine male CD-1 mice were administered TEST COMPOUND by single intravenous bolus administration at 1 mg/kg. The vehicle used for IV study was 5% DMSO, 5% solutol, 20% PEG300 and 70% water. The detailed dosing and sampling regimens are described in the following tables.
1.0 mg of test compound was accurately weighed into a glass vial, and slowly added with 104 μL of DMSO and vortexed for 1 min. Then 104 μL of solutol was added and vortexed for 1 min. Then 415 μL of PEG300 was added and vortexed for 1 min. Then 1000 μL of water was added and vortexed for 1 min. Finally, 451 μL of water was added and vortexed for 1 min to get a clear solution.
The body weights were in the range from 28.81 to 31.25 g for males on the first dosing day. All animals received a single intravenous bolus administration of TEST COMPOUND from the tail vein.
Each blood collection (about 0.06 mL per time point) was performed from saphenous vein of each animal into pre-chilled commercial K2-EDTA tubes as anti-coagulant and placed on wet ice until centrifugation.
Plasma samples were then prepared by centrifuging the blood samples at approximately 4° C., 3200×g for 10 minutes. All plasma samples were then quickly frozen over dry ice and kept at −60° C. or lower until LC-MS/MS analysis.
Brain tissue was homogenized using homogenizing buffer (15 mM PBS (pH7.4): MeOH=2:1) at the ratio of 1:9 (1 g tissue with 9 mL buffer, the dilution ratio is 10). The tissue homogenate was kept at −60° C. or lower until LC-MS/MS analysis.
The concentrations of TEST COMPOUND in plasma and brain were determined by using an LC-MS/MS method.
The plasma and brain concentration of TEST COMPOUND in study animals was subjected to a non-compartmental pharmacokinetic analysis by using the Phoenix WinNonlin software program (version 6.3 or above, Pharsight). The linear/log trapezoidal rule was applied in obtaining the PK parameters.
Individual plasma and brain concentration values that were below the lower limit of quantitation (LLOQ) were excluded from the PK parameter calculation. The nominal dose levels and nominal sampling times were used in the calculation of all pharmacokinetic parameters.
Mouse Kp, uu=(% free in mouse brain*concentration in mouse brain)/(% free in mouse plasma*concentration in mouse plasma)
The dialysis apparatus was assembled according to the manufacturer's instruction. Each Cell was filled with 120 μL of spiked plasma sample and dialyzed against equal volume of dialysis buffer (PBS). The assay was performed in duplicate. The dialysis plates were sealed and incubated in an incubator at 37° C. with 5% CO2 and rotated at 100 rpm for 6 hours. At the end of incubation, the seals were removed and 50 μL of samples from both buffer and plasma chambers were transferred to a 96-well plate.
All calculations were carried out using Microsoft Excel. The concentrations of test compound and control compound in the buffer and plasma chambers were determined from peak area ratios (PAR) of analyte to internal standard. Protein binding (% unbound and % bound) and recovery (% recovery) of test and control compounds was calculated as follows:
• 1. Thawing of the frozen brain (stored at −80° C.) • Frozen brain tissue was thawed at room temperature in a bath. Only brain tissue was used that was thawed no more than once. • 2. Preparation of brain tissue homogenate • Brain tissue homogenate was prepared by diluting one quantity (g) of the whole brain tissue with three volumes (mL) of buffer (PBS, pH 7.4) and homogenizing the mixture using a tissue homogenizer. Brain tissue homogenate was frozen at −80° C. for later use/comparison. • 3. Preparation of working solutions • The working solutions of test compound and the control compound propranolol were prepared in dimethyl sulfoxide (DMSO) at the concentration of 200 μM. […]

| SMILES | Kp uu |
| --- | --- |
| Cc1n[nH]c2c1N=C(c1c(F)cccc1F)Nc1c-2cc(N2CCO[C@@H](C)C2)nc1C [Example 40, (S)-4-(5-(2,6-difluorophenyl)-3,7-dimethyl-1,6-dihydropyrazolo[4,3-d]pyrido[4,3-f][1,3]diazepin-9-yl)-2-methylmorpholine] | < 0.2 |
| Cc1n[nH]c2c1N=C(c1c(F)cccc1F)Nc1c-2cc(N2CCN(CC(C)(C)F)CC2)nc1C [Example 5, 5-(2,6-difluorophenyl)-9-(4-(2-fluoro-2-methylpropyl)piperazin-1-yl)-3,7-dimethyl-1,6-dihydropyrazolo[4,3-d]pyrido[4,3-f][1,3]diazepine] | > 0.4 |
| Cc1n[nH]c2c1N=C(c1c(F)cccc1F)Nc1c-2cc(N2CCN(CC(C)F)CC2)nc1C (racemic) [Example 20, 8-(2,6-difluorophenyl)-13-[4-(2-fluoropropyl)piperazin-1-yl]-5,11-dimethyl-3,4,7,9,12-pentazatricyclo[8.4.0.02,6]tetradeca-1(10),2(6),4,7,11,13-hexaene] | 0.2 to 0.4 |
| Cc1n[nH]c2c1N=C(c1c(F)cccc1F)Nc1c-2cc(N2CCN(CC(F)(F)F)CC2)nc1C [Example 23, 5-(2,6-difluorophenyl)-3,7-dimethyl-9-(4-(2,2,2-trifluoroethyl)piperazin-1-yl)-1,6-dihydropyrazolo[4,3-d]pyrido[4,3-f][1,3]diazepine] | > 0.4 |
| Cc1n[nH]c2c1N=C(c1c(F)cccc1F)Nc1c-2cc(N2CCN(CCF)C[C@H]2C)nc1C (single isomer, unassigned) [Example 18] | > 0.4 |
| Cc1n[nH]c2c1N=C(c1c(F)cccc1F)Nc1c-2cc(N2CCN(CCF)CC2)nc1C [Example 9, 8-(2,6-difluorophenyl)-13-[4-(2-fluoroethyl)piperazin-1-yl]-5,11-dimethyl-3,4,7,9,12-pentazatricyclo[8.4.0.02,6]tetradeca-1(10),2(6),4,7,11,13-hexaene] | > 0.4 |
| Cc1n[nH]c2c1N=C(c1c(F)cccc1F)Nc1cnc(-c3cnn(C(F)F)c3)cc1-2 [Example 1, 9-(1-(difluoromethyl)-1H-pyrazol-4-yl)-5-(2,6-difluorophenyl)-3-methyl-1,6-dihydropyrazolo[4,3-d]pyrido[4,3-f][1,3]diazepine] | 0.2 to 0.4 |
| Cc1n[nH]c2c1N=C(c1c(F)cccc1F)Nc1ccc(N3CCO[C@@H](C)C3)cc1-2 [Example 26, (S)-4-(5-(2,6-difluorophenyl)-3-methyl-1,6-dihydrobenzo[d]pyrazolo[3,4-f][1,3]diazepin-9-yl)-2-methylmorpholine] | 0.2 to 0.4 |
| Cc1n[nH]c2c1N=C(c1c(F)cccc1F)Nc1c-2cc(N2CCN(CC(F)F)CC2)nc1C [Example 19, 13-[4-(2,2-difluoroethyl)piperazin-1-yl]-8-(2,6-difluorophenyl)-5,11-dimethyl-3,4,7,9,12-pentazatricyclo[8.4.0.02,6]tetradeca-1(10),2(6),4,7,11,13-hexaene] | > 0.4 |
| Cc1n[nH]c2c1N=C(c1c(F)cccc1F)Nc1ccc(N3CCN(CCF)CC3)cc1-2 [Example 25, 5-(2,6-difluorophenyl)-9-[4-(2-fluoroethyl)piperazin-1-yl]-3-methyl-1,6-dihydropyrazolo[4,3-d][1,3]benzodiazepine] | 0.2 to 0.4 |
| Cc1n[nH]c2c1N=C(c1c(F)cccc1F)Nc1ccc(-c3cnn(C(F)F)c3)cc1-2 [Example 13, 9-[1-(difluoromethyl)pyrazol-4-yl]-5-(2,6-difluorophenyl)-3-methyl-1,6-dihydropyrazolo[4,3-d][1,3]benzodiazepine] | > 0.4 |
| [2H]C1([2H])OC([2H])([2H])C([2H])([2H])N(c2ccc3c(c2)-c2[nH]nc(C)c2N=C(c2c(F)cccc2F)N3)C1([2H])[2H] [Example 22, 2,2,3,3,5,5,6,6-octadeuterio-4-[5-(2,6-difluorophenyl)-3-methyl-1,6-dihydropyrazolo[4,3-d][1,3]benzodiazepin-9-yl]morpholine] | < 0.2 |
| Cn1nccc1-c1cc2c(cn1)NC(c1c(F)cccc1F)=Nc1c(Cl)n[nH]c1-2 [Example 59, 3-chloro-5-(2,6-difluorophenyl)-9-(1-methyl-1H-pyrazol-5-yl)-1,6-dihydropyrazolo[4,3-d]pyrido[4,3-f][1,3]diazepine] | < 0.2 |

Results, then the compound that gave them:

| Kp uu | SMILES |
| --- | --- |
| 0.2 to 0.4 | [2H]C([2H])([2H])c1n[nH]c2c1N=C(c1c(F)cccc1F)Nc1cnc(N3CCOCC3)cc1-2 [Example 32, 4-[8-(2,6-difluorophenyl)-5-(trideuteriomethyl)-3,4,7,9,12-pentazatricyclo[8.4.0.02,6]tetradeca-1(10),2(6),4,7,11,13-hexaen-13-yl]morpholine] |
| 0.2 to 0.4 | CCc1n[nH]c2c1N=C(c1c(F)cccc1F)Nc1cnc(N3CCOCC3)cc1-2 [Example 31, 4-[8-(2,6-difluorophenyl)-5-ethyl-3,4,7,9,12-pentazatricyclo[8.4.0.02,6]tetradeca-1(10),2(6),4,7,11,13-hexaen-13-yl]morpholine] |
| < 0.2 | Cc1n[nH]c2c1N=C(c1c(F)cccc1F)Nc1cnc(N3CCO[C@@H](C(F)(F)F)C3)cc1-2 [Example 55, (2R)-4-[8-(2,6-difluorophenyl)-5-methyl-3,4,7,9,12-pentazatricyclo[8.4.0.02,6]tetradeca-1(10),2(6),4,7,11,13-hexaen-13-yl]-2-(trifluoromethyl)morpholine] |
| < 0.2 | Fc1cccc(F)c1C1=Nc2c(C(F)F)n[nH]c2-c2cc(N3CCOCC3)ncc2N1 [Example 10, 4-[5-(difluoromethyl)-8-(2,6-difluorophenyl)-3,4,7,9,12-pentazatricyclo[8.4.0.02,6]tetradeca-1(10),2(6),4,7,11,13-hexaen-13-yl]morpholine] |
| > 0.4 | Cc1n[nH]c2c1N=C(c1c(F)cccc1F)Nc1c(F)cc(N3CCOCC3)cc1-2 [Example 30, 4-(5-(2,6-difluorophenyl)-7-fluoro-3-methyl-1,6-dihydrobenzo[d]pyrazolo[3,4-f][1,3]diazepin-9-yl)morpholine] |
| > 0.4 | Cc1n[nH]c2c1N=C(c1c(F)cccc1F)Nc1ccc(N3CCOCC3)cc1-2 [Example 29, 4-(5-(2,6-difluorophenyl)-3-methyl-1,6-dihydrobenzo[d]pyrazolo[3,4-f][1,3]diazepin-9-yl)morpholine] |
| > 0.4 | Cc1n[nH]c2c1N=C(c1c(F)cccc1F)Nc1cc(F)c(N3CCOCC3)cc1-2 [Example 28, 4-[5-(2,6-difluorophenyl)-8-fluoro-3-methyl-1,6-dihydropyrazolo[4,3-d][1,3]benzodiazepine-9-yl]morpholine] |
| 0.2 to 0.4 | Cc1n[nH]c2c1N=C(c1c(F)cccc1F)Nc1c-2cc(N2CCOCC2)nc1C [Example 8, 4-[8-(2,6-difluorophenyl)-5,11-dimethyl-3,4,7,9,12-pentazatricyclo[8.4.0.02,6]tetradeca-1(10),2(6),4,7,11,13-hexaen-13-yl]morpholine] |
| 0.2 to 0.4 | Cc1n[nH]c2c1N=C(c1c(F)cccc1F)N1CCc3nc(N4CCOCC4)cc-2c31 [Example 42, 4-[8-(2,6-difluorophenyl)-5-methyl-3,4,7,9,13-pentazatetracyclo[7.6.1.02,6.012,16]hexadeca-1(16),2(6),4,7,12,14-hexaen-14-yl]morpholine] |
| 0.2 to 0.4 | [2H]C([2H])([2H])c1n[nH]c2c1N=C(c1c(F)cccc1F)Nc1ccc(N3CCOCC3)cc1-2 [Example 33, 4-[5-(2,6-difluorophenyl)-3-(trideuteriomethyl)-1,6-dihydropyrazolo[4,3-d][1,3]benzodiazepin-9-yl]morpholine] |
| 0.2 to 0.4 | Cc1n[nH]c2c1N=C(c1c(F)cccc1F)Nc1ccc(N3CCO[C@H](C)C3)cc1-2 [Example 7, (R)-4-(5-(2,6-difluorophenyl)-3-methyl-1,6-dihydrobenzo[d]pyrazolo[3,4-f][1,3]diazepin-9-yl)-2-methylmorpholine] |
